Test results reported in a compilation of properties of binary mixtures (doi:10.1021/ie303238h).

Experiment: xn = mol fraction of the nth substance listed
Conditions: 298.15 K, 100 kPa

CC[n+]1ccn(C)c1.O=S(=O)([N-]S(=O)(=O)C(F)(F)F)C(F)(F)F + CCCC[n+]1ccn(C)c1.CCOS(=O)(=O)[O-]
viscosity (x1 = 1): 32.55 mPa·s

CC[n+]1ccn(C)c1.O=S(=O)([N-]S(=O)(=O)C(F)(F)F)C(F)(F)F + CCOS(=O)(=O)[O-].CC[n+]1ccn(C)c1
viscosity (x1 = 0.2008): 90.6 mPa·s | viscosity (x1 = 0.4356): 72.5 mPa·s | viscosity (x1 = 0.494): 67.8 mPa·s | viscosity (x1 = 0.5982): 58.31 mPa·s | viscosity (x1 = 0.6996): 50.07 mPa·s | viscosity (x1 = 0.8): 43.24 mPa·s | viscosity (x1 = 0.9025): 37.67 mPa·s | viscosity (x1 = 1): 32.55 mPa·s

CCCC[n+]1ccn(C)c1.CCOS(=O)(=O)[O-] + CC[n+]1ccn(C)c1.O=S(=O)([N-]S(=O)(=O)C(F)(F)F)C(F)(F)F
viscosity (x2 = 0.1009): 212.4 mPa·s | viscosity (x2 = 0.2031): 172.4 mPa·s | viscosity (x2 = 0.2951): 139.9 mPa·s | viscosity (x2 = 0.4027): 109.3 mPa·s | viscosity (x2 = 0.5989): 69.7 mPa·s | viscosity (x2 = 0.8024): 47.55 mPa·s | viscosity (x2 = 0.8996): 39.59 mPa·s
